Test results as given in paper PMC3319558, “Functional Correlates of Positional and Gender-Specific Renal Asymmetry in Drosophila” (PLoS ONE, 2012).
“Also recorded” adds a separate entry of the source. One block for each compound: values may come before it. Ends that are not written are not given here. Peptide text beside a SMILES is read from it.

Assays:
male Malpighian tubules = conditions: 3 h
Protocol: Cytosolic [Ca^2+]cyto or peroxisomal [Ca^2+]perox calcium was measured in tubules expressing transgenic aequorin according to published protocols [88], [89]. Briefly, the tubules were dissected, incubated at room temperature with 2.5 µM coelenterazine to reconstitute aequorin for 3 h. Calcium-dependent aequorin luminescence was measured in 10 biological replicates each containing 20-pairs of tubules. At the end of each experiment, total aequorin was released using 300 µl of lysis buffer (1% (v/v) Triton X-100, 100 mM CaCl2) in order to calculate the total luminescence; and the data were back-integrated using a program written in Perl, based on the method described by Button and Eidsath [90]. Data are presented as the mean (±SEM) and statistical significance was calculated using unpaired t-test.

male tubules = assay: Tubule fluid secretion assay; parameters: species or system Drosophila melanogaster; conditions: sNPF 10^−7 M added at 30 min, average rates before vs after addition, *** Student's t-test, two tailed, P<0.05, N = 10 tubules (typical trace)
Protocol: (§1) Classical fluid secretion assays were performed as previously described by Dow et al.. Briefly, basal fluid secretion rates of the dissected live tubules were established for 30 min after which the required concentrations of peptides were added and secretion was measured for a further 70 min. The rates of secretion (in nl/min) were represented as the mean (±SEM) of approximately 30–35 tubules coming from 3 independent biological replicates.
(§2) sNPF (AQRSPSLRLRF-NH2) and MIP (AWQSLQSSW-NH2) peptides were synthesised by Biomatik, USA with a purity of greater than 98%. NPF ([…]-NH2) peptide was a kind gift from Professor Ian Orchard (University of Toronto Mississauga). According to the peptide profiles generated by peptide profile calculator (Gene Script, UK), they were dissolved first in water to produce a stock solution of 10 mM and subsequently diluted in the Schneider’s medium to get required final concentrations.

female tubules = assay: Tubule fluid secretion assay; parameters: species or system Drosophila melanogaster; conditions: sNPF 10^−7 M added at 30 min, average rates before vs after addition
Protocol: as §1, §2

Drosophila SPR = conditions: more sensitive to MIP than to SP itself; ref [59]; cited from earlier work
Description: (§3) Intriguingly, two well-known receptors (for sex peptide and neuropeptide F) are prominently male-enriched (Supporting information S1). Their spatial expression patterns are presented along with their peptide ligands in Supporting information S1. Sex peptide receptor (SPR) is 6.6x male-enriched.

female = conditions: transferred with the sperm to the female; ref [58]; cited from earlier work
Description: as §3

right and left tubules = conditions: right v. left tubules; chloride conductance under control of leucokinin through intracellular calcium; ref [48], [49]; cited from earlier work
Description: Bestrophin 2 encodes (of four Drosophila bestrophins) the most closely related to human bestrophin 1, a calcium- and volume-activated chloride channel of retinal pigmented epithelial cells, which is mutated in Best’s macular dystrophy, [44]. However, Bestrophins play wider roles: they are implicated in epithelial-to-mesenchymal transitions in human kidney, and in olfactory transduction. In Drosophila, Best1 also mediates a calcium and volume activated chloride current. FlyAtlas reports that, although expressed in eye, Best2 is abundant in epithelia; in adult tubul ...

- EC50 (male Malpighian tubules): 6 nM
Compound: CSCC[C@H](NC(=O)[C@@H](NC(=O)[C@H](CC(N)=O)NC(=O)[C@@H](NC(=O)[C@H](CC(=O)O)NC(=O)[C@H](CC(N)=O)NC(=O)[C@H](CCCCN)NC(=O)[C@H](CCCNC(=N)N)NC(=O)[C@@H]1CCCN1C(=O)[C@@H]1CCCN1C(=O)[C@H](CCCNC(=N)N)NC(=O)[C@H](CO)NC(=O)[C@H](CC(N)=O)NC(=O)[C@@H](N)CO)C(C)C)[C@@H](C)O)C(=O)N[C@@H](C)C(=O)N[C@@H](CC(=O)O)C(=O)N[C@@H](C)C(=O)N[C@@H](Cc1ccc(O)cc1)C(=O)N[C@@H](CCCCN)C(=O)N[C@@H](Cc1ccccc1)C(=O)N[C@@H](CC(C)C)C(=O)N[C@@H](CCC(N)=O)C(=O)N[C@@H](CC(=O)O)C(=O)N[C@@H](CC(C)C)C(=O)N[C@@H](CC(=O)O)C(=O)N[C@H](C(=O)N[C@@H](Cc1ccc(O)cc1)C(=O)N[C@@H](Cc1ccc(O)cc1)C(=O)NCC(=O)N[C@@H](CC(=O)O)C(=O)N[C@@H](CCCNC(=N)N)C(=O)N[C@@H](C)C(=O)N[C@@H](CCCNC(=N)N)C(=O)N[C@H](C(=O)N[C@@H](CCCNC(=N)N)C(=O)N[C@@H](Cc1ccccc1)C(N)=O)C(C)C)[C@@H](C)O [NPF, neuropeptide F] (H-SNSRPPRKNDVNTMADAYKFLQDLDTYYGDRARVRF-NH2)

Compound: AQRSPSLRLRF-NH2 [sNPF, short neuropeptide F, distantly related peptide, the so called short neuropeptide F; synthesised by Biomatik]
- Resting fluid secretion (male tubules): inhibits fluid secretion in male; also recorded: inhibits resting fluid secretion
- Resting fluid secretion (female tubules): not female; also recorded: only of male tubules

Compound: AWQSLQSSW-NH2 [allatostatin-B, the Drosophila MIP, allatostatin-B]
- Sensitivity of Drosophila SPR relative to SP (Drosophila SPR): 10 x

Compound: Sex peptide: transferred with the sperm to the female (WEWPWNRKPTKFPIPSPNPRDKWCRLNLGPAWGGRC; ends and bridges not checked; cysteine pairing not given here; UniProt P05623 20-55, looked up)
- Change in female physiology and behaviour (female): a reduction in receptivity to subsequent matings

Compound: leucokinin: diuretic neuropeptide leucokinin, which acts through intracellular calcium (NSVVLGKKQRFHSWG; ends and bridges not checked; UniProt P81829 133-147, looked up)
- Action on right and left tubules (right and left tubules): acts equally on both right and left tubules
